Assay results taken from article PMC12208134, “Structure-activity relationships of 1,5-dihydro-2H-benzo[b][1,4]diazepine-2,4(3H)-diones as inhibitors of Trypanosoma cruzi” (RSC medicinal chemistry, 2025).
≈ marks a conversion by molar mass, not a printed value. Where “and” joins values, the source holds several entries; their conditions need not be identical. Equal entries are not always repeated. Where two headings read alike, the source gives them in different places.

Assays:
[1] = ChromLogD pH7.4 (chromatographic hydrophobicity index), PFI, LLE; settings: for PFI: ChromLogDpH7.4 + no. aromatic rings
Description: [23] Alongside PFI, LLE (ligand lipophilic efficiency, T. cruzi pIC50 - ChromLogDpH7.4) was also monitored to identify changes where the impact on potency was not driven by increasing lipophilicity.

[2] = Human liver microsomal intrinsic clearance; assay type: in vitro ADME
[3] = system: host Vero cell; assay: Vero host cell toxicity in the intracellular T. cruzi assay; assay type: cell-based; design: key to Max Effect (Vero): % inhibition; 0% = DMSO control, 100% = 16 μM nifurtimox control; settings: for EC50 / IC50: Chlorocebus sabaeus; for EC50: Vero; for IC50: read-out: Vero pIC50 (converted)
Experimental: (§1) T. cruzi intracellular potency and rate-of-kill assay (high content imaging) ^1
(§2) Silvio X10/7 T. cruzi trypomastigotes were incubated at 37°C 5% CO2 with 1.6×10^7 Vero cells overnight at MOI10 in MEM media supplemented with 10% foetal calf serum (FCS). Extracellular parasites were removed by aspirating cell culture supernatant, and washing Vero monolayer with 10 ml serum-free MEM three times. Vero cells were then harvested by trypsinization and dispensed at 2×10^3 per well (50 μl in MEM/ 1% FCS) into 384 well plates pre-stamped with compounds in DMSO using automated washer/ dispenser EL406 and liquid handling software (Biotek). Plates were then incubated at 37°C in 5% CO2 for 96 h. For rate-of-kill determination, plates were incubated for 24h, 48h, 72h and 96h.
(§3) Plates were subsequently fixed with 4% formaldehyde for 20 min, permeabilised and stained with 5 μgml^-1 Hoechst 33342/ 0.1% Triton/ PBS Thimerosal 20 min. Automated imaging was performed by an Operetta high content imaging system using 20x objective (PerkinElmer). Images were analysed with an algorithm generated in Columbus (PerkinElmer) to segment Vero cell nuclei, Vero cell cytoplasm and parasite nuclei/ kinetoplasts, reporting number of amastigotes per Vero cell, percent infected Vero cells and total number of Vero cells. Compound potencies against T. cruzi parasites were calculated in IDBS Activitybase using percent infected Vero cells and Vero toxicity curves generated using number of host cells. All data was normalised to percent inhibition based on the raw data values for the 100% effect control (16 μM nifurtimox) and the 0% effect control (DMSO) on each plate at each time point. Curve fitting was carried out using a four-parameter equation as previously described. ^2 For rate-of-kill experiments the percent infected cells at each compound concentration was plotted against time.

[4] = system: intracellular T. cruzi amastigotes; assay: T. cruzi intracellular potency assay (high content imaging); assay type: cell-based, Trypanosoma cruzi; design: key to Max Effect (T. cruzi): % inhibition; 0% = DMSO control, 100% = 16 μM nifurtimox control; settings: for Emax / EC50 / IC50: Trypanosoma cruzi; for Emax / EC50 / Hill slope (T. cruzi) / Max Effect (T. cruzi) / pEC50 (T. cruzi): individual replicate; for Emax: read-out: Max Effect (T. cruzi); for EC50: read-out: pEC50 (T. cruzi) (converted); for IC50: read-out: T. cruzi pIC50 (converted)
Experimental: as §1, §2, §3

[5] = Kinetic aqueous solubility by CAD; assay type: physicochemical
[6] = Mouse liver microsomal intrinsic clearance; assay type: in vitro ADME
[7] = intracellular amastigotes in Vero cells, 96 h, mean of N ≥ 3
[8] = kinetic from dmso stock, kinetic, CAD, read-out: Aqueous solubility

## COc1ccccc1N1C(=O)C(NC(=O)Nc2ccc(C)cc2)C(=O)Nc2ccccc21 (centres unmarked) [Compound 6, 1-(1-(2-methoxyphenyl)-2,4-dioxo-2,3,4,5-tetrahydro-1H-benzo[b][1,4]diazepin-3-yl)-3-(p-tolyl)urea]
[1]
  PFI: 7.7
[1]; pH 7.4
  chromatographic logD: 4.7
[2]; human, microsomes
  HLM CLi: <0.4 mL/min/g
[3]; individual replicate
  EC50: > 50.1 µM
  Max Effect (Vero): 38 and 21 and 11 and 12
[3]; host Vero cell
  IC50: > 50.1 µM
[4]
  Emax: 79%
  EC50: 31.6 µM
  Hill slope (T. cruzi): 2.9 and 3.1 and 3.8 and 11.3
  Max Effect (T. cruzi): 81 and 90 and 77
  pEC50 (T. cruzi): 4.6 and 4.3
[4]; [7]
  IC50: 31.6 µM
[5]; kinetic from dmso stock
  solubility: 129 µM (≈ 55.5 µg/mL)
[6]; mouse, microsomes
  MLM CLi: 2.1 mL/min/g

## CC(C)N(C(=O)CN1C(=O)C(N)C(=O)N(c2ccccc2)c2ccccc21)c1ccccc1 (single isomer, unassigned) [14-Ent 1, 2-(3-amino-2,4-dioxo-5-phenyl-2,3,4,5-tetrahydro-1H-benzo[b][1,4]diazepin-1-yl)-N-isopropyl-N-phenylacetamide]
[3]; individual replicate
  EC50: > 50.1 µM
  Max Effect (Vero): 27 and 35
  pEC50 (Vero): < 4.3
[4]
  Emax: 94%
  EC50: 0.316 µM
  Hill slope (T. cruzi): 3.1 and 5.7
  Max Effect (T. cruzi): 88
  pEC50 (T. cruzi): 6.4

## Cc1ccc(NC(=O)NC2CNc3ccccc3N(c3ccccc3)C2=O)cc1 (centres unmarked) [Compound 11, 1-(2-oxo-1-phenyl-2,3,4,5-tetrahydro-1H-benzo[b][1,4]diazepin-3-yl)-3-(p-tolyl)urea]
[1]
  PFI: 8.4
[1]; pH 7.4
  chromatographic logD: 5.4
[2]; human liver microsomes
  HLM CLi: <0.4 mL/min/g
[3]; individual replicate
  EC50: > 50.1 µM
  Max Effect (Vero): 20 and 21 and 9 and 10
[3]; host Vero cell
  IC50: > 50.1 µM
[4]
  Emax: 67%
  EC50: 25.1 µM
  Hill slope (T. cruzi): 1.3 and 2.0 and 1.7 and 2.2
  Max Effect (T. cruzi): 77 and 75 and 73
  pEC50 (T. cruzi): 4.7
[4]; [7]
  IC50: 25.1 µM
[5]; [8]
  solubility: < 1 µM
[6]; mouse liver microsomes
  MLM CLi: 4.0 mL/min/g

## Cc1ccc(NC(=O)NC2C(=O)Nc3ccccc3N(C3CCOCC3)C2=O)cc1 (centres unmarked) [Compound 8, 1-(2,4-dioxo-1-(tetrahydro-2H-pyran-4-yl)-2,3,4,5-tetrahydro-1H-benzo[b][1,4]diazepin-3-yl)-3-(p-tolyl)urea]
[1]
  PFI: 5.5
[1]; pH 7.4
  chromatographic logD: 3.5
[2]; human liver microsomes
  HLM CLi: <0.4 mL/min/g
[3]; individual replicate
  EC50: > 50.1 µM
  Max Effect (Vero): 17 and 36 and -0.637 and 18
[3]; host Vero cell
  IC50: > 50.1 µM
[4]
  Emax: 73%
  EC50: 10 µM
  Hill slope (T. cruzi): 2.6 and 1.3 and 1.9
  Max Effect (T. cruzi): 78 and 81
  pEC50 (T. cruzi): 4.9 and 4.8
[4]; [7]
  IC50: 12.6 µM
[5]; [8]
  solubility: 380 µM (≈ 155 µg/mL)
[6]; mouse liver microsomes
  MLM CLi: 0.7 mL/min/g

## COc1ccc(CN2C(=O)C(N)C(=O)N(c3ccccc3)c3c(F)cccc32)cc1 (centres unmarked) [Compound 21, 3-amino-6-fluoro-1-(4-methoxybenzyl)-5-phenyl-1,5-dihydro-2H-benzo[b][1,4]diazepine-2,4(3H)-dione]
[1]
  PFI: 7.3
[1]; pH 7.4
  chromatographic logD: 4.3
[2]; human, microsomes
  HLM CLi: <0.4 mL/min/g
[3]; individual replicate
  EC50: > 50.1 µM
  Max Effect (Vero): -0.364 and 17 and 0.947 and 18 and 21 and 12
[3]; host Vero cell
  IC50: > 50.1 µM
[4]
  Emax: 81%
  Hill slope (T. cruzi): 13.4 and 21.5 and 12.3 and 1.4 and 2.3 and 17.2
  Max Effect (T. cruzi): 88 and 90 and 85
  pEC50 (T. cruzi): 5.8 and 6.3 and 5.7
[4]; [7]
  IC50: 1.26 µM
[5]; kinetic from dmso stock
  solubility: > 217 µM
[6]; mouse, microsomes
  MLM CLi: 9.0 mL/min/g

## O=C(Nc1ccc(F)cc1)NC1C(=O)Nc2ccccc2N(c2ccccc2)C1=O (centres unmarked) [Compound 3, 1-(2,4-dioxo-1-phenyl-2,3,4,5-tetrahydro-1H-benzo[b][1,4]diazepin-3-yl)-3-(4-fluorophenyl)urea]
[1]
  PFI: 7.4
[1]; pH 7.4
  chromatographic logD: 4.4
[2]; human, microsomes
  HLM CLi: <0.4 mL/min/g
[3]; individual replicate
  EC50: > 50.1 µM
  Max Effect (Vero): -12 and 14 and 22 and 36
[3]; host Vero cell
  IC50: > 50.1 µM
[4]
  Emax: 90%
  EC50: 12.6 µM
  Hill slope (T. cruzi): 2.0 and 0.8 and 2.1 and 1.3
  Max Effect (T. cruzi): 92 and 95 and 83
  pEC50 (T. cruzi): 5.1 and 4.8
[4]; [7]
  IC50: 10 µM
[5]; kinetic from dmso stock
  solubility: 26 µM (≈ 10.5 µg/mL)
[6]; mouse, microsomes
  MLM CLi: 0.6 mL/min/g

## Cc1ccc(NC(=O)NC2CN(c3ccccc3)c3ccccc3NC2=O)cc1 (centres unmarked) [Compound 10, 1-(4-oxo-1-phenyl-2,3,4,5-tetrahydro-1H-benzo[b][1,4]diazepin-3-yl)-3-(p-tolyl)urea]
[1]
  PFI: 8.7
[1]; pH 7.4
  chromatographic logD: 5.7
[2]; human liver microsomes
  HLM CLi: <0.4 mL/min/g
[3]; host Vero cell
  IC50: 12.6 µM
[3]; individual replicate
  Hill Slope (Vero): 3.6 and 42.2 and 4.8 and 14.3
  Max Effect (Vero): 96 and 91 and 95 and 63
  pEC50 (Vero): 4.7 and 5.2 and 4.6 and 5.3
[4]
  Emax: 86%
  Hill slope (T. cruzi): 3.5 and 12.0 and 3.2 and 0.8
  Max Effect (T. cruzi): 83 and 85
  pEC50 (T. cruzi): 5.0 and 4.9 and 5.3
[4]; [7]
  IC50: 7.94 µM
[5]; [8]
  solubility: 23 µM (≈ 8.89 µg/mL)
[6]; mouse liver microsomes
  MLM CLi: 3.5 mL/min/g

## COc1ccc(CN2C(=O)CC(=O)N(c3ccc(OC)cc3)c3ccccc32)cc1 [Compound 23, 1-(4-methoxybenzyl)-5-(4-methoxyphenyl)-1,5-dihydro-2H-benzo[b][1,4]diazepine-2,4(3H)-dione]
[1]
  PFI: 8.1
[1]; pH 7.4
  chromatographic logD: 5.1
[2]; human, microsomes
  HLM CLi: >37 mL/min/g
[3]; individual replicate
  EC50: > 50.1 µM
  Max Effect (Vero): 2.11 and 2.25 and 31 and 32
[3]; host Vero cell
  IC50: > 50.1 µM
[4]
  EC50: > 50.1 µM
  Max Effect (T. cruzi): 39 and 11 and 27 and 29
[4]; [7]
  IC50: > 50.1 µM
[5]; kinetic from dmso stock
  solubility: 175 µM (≈ 70.4 µg/mL)
[6]; mouse, microsomes
  MLM CLi: 80 mL/min/g

## 3-amino-6-fluoro-1-(4-methoxybenzyl)-5-(4-methoxyphenyl)-1,5-dihydro-2H-benzo[b][1,4]diazepine-2,4(3H)-dione [Compound 22]
[1]
  PFI: 7.2
[1]; pH 7.4
  Chrom LogDpH7.4: 4.2
[2]; human liver microsomes
  HLM CLi: <0.4 mL/min/g
[3]; host Vero cell
  Vero pIC50: <4.3
[3]; individual replicate
  Max Effect (Vero): 3.52 and 24 and 2 and 12
  pEC50 (Vero): < 4.3
[4]
  Hill slope (T. cruzi): 11.8 and 10.3 and 3.4 and 21.3
  Max Effect (T. cruzi): 77 and 98 and 83 and 82
  pEC50 (T. cruzi): 7.2
[4]; [7]
  T. cruzi pIC50: 7.2 ± 0.0
[5]; kinetic, CAD, read-out: Aqueous solubility
  solubility: 168 µM
[6]; mouse liver microsomes
  MLM CLi: 2.2 mL/min/g

## CC(C)N(C(=O)CN1C(=O)C(N)C(=O)N(c2ccccc2)c2ccccc21)c1ccccc1 (single isomer, unassigned) [14-Ent 2, 2-(3-amino-2,4-dioxo-5-phenyl-2,3,4,5-tetrahydro-1H-benzo[b][1,4]diazepin-1-yl)-N-isopropyl-N-phenylacetamide]
[3]; individual replicate
  Max Effect (Vero): 5.45 and 20
  pEC50 (Vero): < 4.3
[4]
  Hill slope (T. cruzi): 85.9 and 4.0
  Max Effect (T. cruzi): 82
  pEC50 (T. cruzi): 6.7 and 6.6
